Results taken from US11083725B2 (priority 2014, dated 2021).

Test system: NHBE cells
Assay: Biolog metabolic array: substrate use by NHBE cells with or without CA09 infection
Type: cell-based, human
Conditions: for Substrate use, 590 nm absorbance normalized to zero hour, 0 hr: Biolog PMM2, 0 hr; for Substrate use, 590 nm absorbance normalized to zero hour, 1 hr: Biolog PMM2, 1 hr; for Substrate use, 590 nm absorbance normalized to zero hour, 5 hr: Biolog PMM2, 5 hr; for Substrate use, 590 nm absorbance normalized to zero hour, 7 hr: Biolog PMM2, 7 hr
[1] = Control (uninfected) NHBE cells
[2] = Virus (CA09-infected, MOI 1) NHBE cells
[3] = Virus: CA09-infected NHBE cells, MOI 1, Biolog PMM2
[4] = Virus (CA09, MOI 1) infected NHBE cells

## OC[C@@]12OC[C@@H](O1)[C@@H](O)[C@@H](O)[C@@H]2O [Sedoheptulosan]
[1]
  590 nm absorbance normalized to zero hour (substrate use), 0 hr: 1.00
  590 nm absorbance normalized to zero hour (substrate use), 1 hr: 0.31
  590 nm absorbance normalized to zero hour (substrate use), 2 hr: 0.41
  590 nm absorbance normalized to zero hour (substrate use), 3 hr: 0.44
  590 nm absorbance normalized to zero hour (substrate use), 4 hr: 0.49
  590 nm absorbance normalized to zero hour (substrate use), 6 hr: 0.56
  590 nm absorbance normalized to zero hour (substrate use), 8 hr: 0.71
  590 nm absorbance normalized to zero hour (substrate use), 9 hr: 0.82
  590 nm absorbance normalized to zero hour (substrate use), 10 hr: 0.89
  590 nm absorbance normalized to zero hour (substrate use), 11 hr: 1.46
  Substrate use, 590 nm absorbance normalized to zero hour, 0 hr: 1.00
  Substrate use, 590 nm absorbance normalized to zero hour, 1 hr: 0.31
  Substrate use, 590 nm absorbance normalized to zero hour, 5 hr: 0.61
  Substrate use, 590 nm absorbance normalized to zero hour, 7 hr: 0.71
[2]
  590 nm absorbance normalized to zero hour (substrate use), 0 hr: 1.00
  590 nm absorbance normalized to zero hour (substrate use), 1 hr: 1.49
  590 nm absorbance normalized to zero hour (substrate use), 2 hr: 1.48
  590 nm absorbance normalized to zero hour (substrate use), 3 hr: 1.46
  590 nm absorbance normalized to zero hour (substrate use), 4 hr: 1.43
  590 nm absorbance normalized to zero hour (substrate use), 5 hr: 1.30
  590 nm absorbance normalized to zero hour (substrate use), 6 hr: 1.36
  590 nm absorbance normalized to zero hour (substrate use), 7 hr: 1.39
  590 nm absorbance normalized to zero hour (substrate use), 8 hr: 1.49
  590 nm absorbance normalized to zero hour (substrate use), 9 hr: 1.58
  590 nm absorbance normalized to zero hour (substrate use), 10 hr: 1.48
  590 nm absorbance normalized to zero hour (substrate use), 11 hr: 1.65
[3]
  590 nm absorbance normalized to zero hour (substrate use), 0 hr: 1.00
  590 nm absorbance normalized to zero hour (substrate use), 1 hr: 1.49
  590 nm absorbance normalized to zero hour (substrate use), 2 hr: 1.48
  590 nm absorbance normalized to zero hour (substrate use), 3 hr: 1.46
  590 nm absorbance normalized to zero hour (substrate use), 4 hr: 1.43
  590 nm absorbance normalized to zero hour (substrate use), 5 hr: 1.30
  590 nm absorbance normalized to zero hour (substrate use), 6 hr: 1.36
  590 nm absorbance normalized to zero hour (substrate use), 7 hr: 1.39
  590 nm absorbance normalized to zero hour (substrate use), 8 hr: 1.49
  590 nm absorbance normalized to zero hour (substrate use), 9 hr: 1.58
  590 nm absorbance normalized to zero hour (substrate use), 10 hr: 1.48
  590 nm absorbance normalized to zero hour (substrate use), 11 hr: 1.65

## OC[C@H]1O[C@H](OC[C@H]2O[C@H](OC[C@H]3O[C@H](O[C@]4(CO)O[C@H](CO)[C@@H](O)[C@@H]4O)[C@H](O)[C@@H](O)[C@@H]3O)[C@H](O)[C@@H](O)[C@H]2O)[C@H](O)[C@@H](O)[C@H]1O [Stachyose]
[1]
  590 nm absorbance normalized to zero hour (substrate use), 0 hr: 1.00
  590 nm absorbance normalized to zero hour (substrate use), 1 hr: 8.51
  590 nm absorbance normalized to zero hour (substrate use), 2 hr: 8.20
  590 nm absorbance normalized to zero hour (substrate use), 3 hr: 7.94
  590 nm absorbance normalized to zero hour (substrate use), 4 hr: 8.00
  590 nm absorbance normalized to zero hour (substrate use), 6 hr: 3.45
  590 nm absorbance normalized to zero hour (substrate use), 8 hr: 3.67
  590 nm absorbance normalized to zero hour (substrate use), 9 hr: 3.90
  590 nm absorbance normalized to zero hour (substrate use), 10 hr: 9.13
  590 nm absorbance normalized to zero hour (substrate use), 11 hr: 4.47
  Substrate use, 590 nm absorbance normalized to zero hour, 0 hr: 1.00
  Substrate use, 590 nm absorbance normalized to zero hour, 1 hr: 8.51
  Substrate use, 590 nm absorbance normalized to zero hour, 5 hr: 3.55
  Substrate use, 590 nm absorbance normalized to zero hour, 7 hr: 6.99
[2]
  590 nm absorbance normalized to zero hour (substrate use), 0 hr: 1.00
  590 nm absorbance normalized to zero hour (substrate use), 1 hr: 1.42
  590 nm absorbance normalized to zero hour (substrate use), 2 hr: 1.76
  590 nm absorbance normalized to zero hour (substrate use), 3 hr: 1.96
  590 nm absorbance normalized to zero hour (substrate use), 4 hr: 2.07
  590 nm absorbance normalized to zero hour (substrate use), 5 hr: 4.65
  590 nm absorbance normalized to zero hour (substrate use), 6 hr: 5.10
  590 nm absorbance normalized to zero hour (substrate use), 7 hr: 3.71
  590 nm absorbance normalized to zero hour (substrate use), 8 hr: 3.40
  590 nm absorbance normalized to zero hour (substrate use), 9 hr: 3.17
  590 nm absorbance normalized to zero hour (substrate use), 10 hr: 2.89
  590 nm absorbance normalized to zero hour (substrate use), 11 hr: 4.13
[3]
  590 nm absorbance normalized to zero hour (substrate use), 0 hr: 1.00
  590 nm absorbance normalized to zero hour (substrate use), 1 hr: 1.42
  590 nm absorbance normalized to zero hour (substrate use), 2 hr: 1.76
  590 nm absorbance normalized to zero hour (substrate use), 3 hr: 1.96
  590 nm absorbance normalized to zero hour (substrate use), 4 hr: 2.07
  590 nm absorbance normalized to zero hour (substrate use), 5 hr: 4.65
  590 nm absorbance normalized to zero hour (substrate use), 6 hr: 5.10
  590 nm absorbance normalized to zero hour (substrate use), 7 hr: 3.71
  590 nm absorbance normalized to zero hour (substrate use), 8 hr: 3.40
  590 nm absorbance normalized to zero hour (substrate use), 9 hr: 3.17
  590 nm absorbance normalized to zero hour (substrate use), 10 hr: 2.89
  590 nm absorbance normalized to zero hour (substrate use), 11 hr: 4.13

## NC(=O)CCC(=O)O [Succinamic Acid]
[1]
  590 nm absorbance normalized to zero hour (substrate use), 1 hr: 1.11
  590 nm absorbance normalized to zero hour (substrate use), 2 hr: 0.37
  590 nm absorbance normalized to zero hour (substrate use), 3 hr: 0.42
  590 nm absorbance normalized to zero hour (substrate use), 4 hr: 0.42
  590 nm absorbance normalized to zero hour (substrate use), 6 hr: 0.44
  590 nm absorbance normalized to zero hour (substrate use), 8 hr: 0.51
  590 nm absorbance normalized to zero hour (substrate use), 9 hr: 0.54
  590 nm absorbance normalized to zero hour (substrate use), 10 hr: 0.56
  590 nm absorbance normalized to zero hour (substrate use), 11 hr: 0.61
  Substrate use, 590 nm absorbance normalized to zero hour, 1 hr: 1.11
  Substrate use, 590 nm absorbance normalized to zero hour, 5 hr: 0.45
  Substrate use, 590 nm absorbance normalized to zero hour, 7 hr: 0.50
[4]
  Substrate use, 590 nm absorbance normalized to zero hour, 1 hr: 1.45
  Substrate use, 590 nm absorbance normalized to zero hour, 5 hr: 2.03
  Substrate use, 590 nm absorbance normalized to zero hour, 7 hr: 2.22
[2]
  590 nm absorbance normalized to zero hour (substrate use), 1 hr: 1.45
  590 nm absorbance normalized to zero hour (substrate use), 2 hr: 1.65
  590 nm absorbance normalized to zero hour (substrate use), 3 hr: 1.88
  590 nm absorbance normalized to zero hour (substrate use), 4 hr: 1.85
  590 nm absorbance normalized to zero hour (substrate use), 6 hr: 2.14
  590 nm absorbance normalized to zero hour (substrate use), 8 hr: 2.30
  590 nm absorbance normalized to zero hour (substrate use), 9 hr: 2.41
  590 nm absorbance normalized to zero hour (substrate use), 10 hr: 2.37
  590 nm absorbance normalized to zero hour (substrate use), 11 hr: 2.51
